Data reported in US20180093956A1, “SUBSTITUTED PHTHALAZINES” (AbbVie Inc., priority 2015, published 2018).
pEC50, pIC50: −log10 of the molar value. Read-outs that look alike come from different tables or passages of the source.

What was measured:
[1] = system: H4K20me3 in PC-3 cells (SUV420H1 cellular activity); assay: H4K20me3 Cellular PD Assay (high content microscopy); format: cell-based; settings: treated for 72 hours, H4K20me3 immunofluorescence, read-out: H4K20me3 Inhibition EC50
Method: A high content microscopy-based PD assay was used to analyze the decrease of H4K20me3 upon inhibition of SUV420H1 cellular activity. PC-3 cells were plated at 3,000 cells per well in black Collagen I coated 96-well plates (Perkin Elmer, #6005810) in RPMI supplemented with 10% heat inactivated FBS, 1% sodium pyruvate and 1% non-essential amino acids in a 37° C. tissue culture incubator. At 24 hours post seeding, cells were treated with the indicated compounds for 72 hours in an 8-point dose response using half log dilutions from […] and then fixed in 2% formaldhyde (Polysciences, Inc., #04018) for 10 minutes at room temperature. Cells were washed in PBS and permeablized in 0.1% Triton X-100 for 10 minutes at room temperature. After blocking in 1% BSA (Sigma, #A7030) in PBS for 1 hour at room temperature, a mouse monoclonal antibody directed toward H4K20me3 (Santa Cruz, #sc-134216) in antibody dilution buffer (0.3% BSA in PBS) was added for 16 hours at 4° C. Cells were then washed 3 times in PBS and an Alexa Fluor 555 conjugated goat anti-mouse (Life Technologies #A-21424) secondary antibody was added for 1 hour at room temperature. Hoechst 33342 diluted 1:10000 (Life Technologies #H3570) was also added during the secondary antibody incubation. Cells were washed 3 times in PBS and stored in PBS at 4° C. Fluorescent images were acquired within 24 hours on a Cell Insight (Thermo Fisher Scientific) using the Target Activation algorithm. Objects were identified via nuclear Hoescht staining, and changes in average mean intensity in the fluorescent signals of H4K20me3 were quantified using the HCS View software platform (Thermo Fisher Scientific).

SUV420H1 enzyme = SUV420H1 enzyme (Homo sapiens, UniProt Q4FZB7); assay: TR-FRET SAH SUV420H1 enzyme inhibition assay; format: biochemical; settings: Histone Peptide H4(8-30)me1 and SAM, TR-FRET detection of SAH, read-out: TR-FRET SAH_SUV420H1 IC50
Method: Test compounds were dispensed by a Labcyte Echo in 384-well low volume assay plates with 3-fold serial dilutions from 50 μM to 0.00075 μM. 5 μL of SUV420H1 enzyme (Abbvie) at 90 nM was added to all wells except for the no enzyme control wells and incubated for 30 minutes at room temperature before 5 μL of Histone Peptide H4(8-30)me1 (Anaspec) at 5 μM and SAM at 4 μM was added to all wells. The plates were incubated in a humidified chamber overnight at room temp and then 10 μL of the detection reagent that contained RIPA buffer (50 mM Tris-HCl, pH 8.0, 150 mM sodium chloride, 1.0% Igepal CA-630 (NP-40), 0.5% sodium deoxycholate and 0.1% sodium dodecyl sulfate) (Sigma) with 2 nM of Terbium chelate anti S-adenosyl-L-homocysteine (SAH) (Abbvie) antibody and Oregon Green labeled SAH at 4 nM was added. The plates were further incubated for 4 hours at room temperature. The plates were read in a Perkin Elmer Envision using a TR-FRET protocol with Excitation set at 335 nm and Emission at 520 and 495 nm. To generate dose response curves the data is normalized to percent inhibition by setting the average of the plus and minus enzyme control wells to 0% and 100% inhibition respectively. The ICso values for the compounds are generated by fitting the normalized data with Accelrys Assay Explorer 3.3 to a sigmoidal curve model using […], Y=(100*x^n)/(K^n+x^n), where Y is the measured response, x is the compound concentration, n is the Hill Slope and K is the IC50 and the lower and higher asymptotes are constrained to 0 and 100 respectively.

SUV420H1 enzyme, sequence (Q4FZB7 whole entry): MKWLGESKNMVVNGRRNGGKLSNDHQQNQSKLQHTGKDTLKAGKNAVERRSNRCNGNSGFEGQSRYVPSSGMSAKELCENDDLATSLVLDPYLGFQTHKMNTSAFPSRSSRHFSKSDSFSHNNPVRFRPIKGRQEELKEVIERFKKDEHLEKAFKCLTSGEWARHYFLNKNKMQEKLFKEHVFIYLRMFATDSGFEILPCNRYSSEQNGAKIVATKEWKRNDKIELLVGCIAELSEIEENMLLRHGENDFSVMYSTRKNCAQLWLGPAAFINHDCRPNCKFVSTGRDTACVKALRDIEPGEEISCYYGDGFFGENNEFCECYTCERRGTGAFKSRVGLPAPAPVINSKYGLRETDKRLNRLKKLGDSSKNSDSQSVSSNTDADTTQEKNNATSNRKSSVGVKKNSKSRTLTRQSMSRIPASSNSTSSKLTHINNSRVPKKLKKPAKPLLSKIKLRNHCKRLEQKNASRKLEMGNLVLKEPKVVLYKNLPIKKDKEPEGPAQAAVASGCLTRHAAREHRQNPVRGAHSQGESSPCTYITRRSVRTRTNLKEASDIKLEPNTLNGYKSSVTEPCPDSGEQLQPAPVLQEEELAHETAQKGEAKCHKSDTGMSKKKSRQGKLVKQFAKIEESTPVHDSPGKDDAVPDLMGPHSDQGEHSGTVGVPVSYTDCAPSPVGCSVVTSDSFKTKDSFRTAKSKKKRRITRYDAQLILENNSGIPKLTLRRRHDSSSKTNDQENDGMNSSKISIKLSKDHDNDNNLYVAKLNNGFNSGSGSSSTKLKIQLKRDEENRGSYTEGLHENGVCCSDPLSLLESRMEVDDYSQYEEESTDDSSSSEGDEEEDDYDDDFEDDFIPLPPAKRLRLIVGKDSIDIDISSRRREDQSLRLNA

| pEC50 [1] | pIC50 (SUV420H1 enzyme) | pEC50 ([1]; Homo sapiens) | Compound |
| --- | --- | --- | --- |
| 5.78 | 6.76 |  | 1-{4-[6,7-dichloro-4-(cyclopentylamino)phthalazin-1-yl]pyridin-2-yl}pyrrolidin-3-ol [Example 36] |
|  | 6.44 | 4.94 | Clc1cc2c(Cl)nnc(NC3CCCC3)c2cc1Cl [Example 1, 4,6,7-trichloro-N-cyclopentylphthalazin-1-amine] |
|  | 7.03 | 5.94 | Cn1ccc(-c2nnc(NC3CCCC3)c3cc(Cl)c(Cl)cc23)n1 [Example 4, 6,7-dichloro-N-cyclopentyl-4-(1-methyl-1H-pyrazol-3-yl)phthalazin-1-amine] |
|  |  | 4.81 | O=C(C1CC1)N1CC=C(c2nnc(NC3CCCC3)c3cc(Cl)c(Cl)cc23)CC1 [Example 70, cyclopropyl {4-[6,7-dichloro-4-(cyclopentylamino)phthalazin-1-yl]-3,6-dihydropyridin-1(2H)-yl}methanone] |
|  |  | 4.88 | Cn1cc(C(=O)N2CC=C(c3nnc(NC4CCCC4)c4cc(Cl)c(Cl)cc34)CC2)cn1 [Example 78, {4-[6,7-dichloro-4-(cyclopentylamino)phthalazin-1-yl]-3,6-dihydropyridin-1(2H)-yl}(1-methyl-1H-pyrazol-4-yl)methanone] |
|  | 5.65 |  | O=C1CCC(C(=O)N2CC=C(c3nnc(NC4CCCC4)c4cc(Cl)c(Cl)cc34)CC2)C1 (centres unmarked) [Example 81, 3-({4-[6,7-dichloro-4-(cyclopentylamino)phthalazin-1-yl]-3,6-dihydropyridin-1(2H)-yl}carbonyl)cyclopentanone] |
|  | 6.09 |  | NC(=O)CC(=O)N1CC=C(c2nnc(NC3CCCC3)c3cc(Cl)c(Cl)cc23)CC1 [Example 83, 3-{4-[6,7-dichloro-4-(cyclopentylamino)phthalazin-1-yl]-3,6-dihydropyridin-1(2H)-yl}-3-oxopropanamide] |

The next lines start with the compound.

| Compound | pEC50 [1] | pIC50 (SUV420H1 enzyme) | pEC50 ([1]; Homo sapiens) |
| --- | --- | --- | --- |
| Cn1cc(-c2nnc(NC3CCCC3)c3cc(Cl)c(Cl)cc23)cn1 [Example 5, 6,7-dichloro-N-cyclopentyl-4-(1-methyl-1H-pyrazol-4-yl)phthalazin-1-amine] |  | 6.95 | 6.30 |
| Clc1cc2c(NC3CCCC3)nnc(-c3ccncc3)c2cc1Cl [Example 6, 6,7-dichloro-N-cyclopentyl-4-(pyridin-4-yl)phthalazin-1-amine] |  | 7.41 | 6.28 |
| O=C(Cn1cc(-c2nnc(NC3CCCC3)c3cc(Cl)c(Cl)cc23)cn1)N1CCOCC1 [Example 65, 2-{4-[6,7-dichloro-4-(cyclopentylamino)phthalazin-1-yl]-1H-pyrazol-1-yl}-1-(morpholin-4-yl)ethanone] |  | 6.26 |  |
| CS(=O)(=O)N1CC=C(c2nnc(NC3CCCC3)c3cc(Cl)c(Cl)cc23)CC1 [Example 67, 6,7-dichloro-N-cyclopentyl-4-[1-(methylsulfonyl)-1,2,3,6-tetrahydropyridin-4-yl]phthalazin-1-amine] |  | 6.35 |  |
| O=S(=O)(C1CC1)N1CC=C(c2nnc(NC3CCCC3)c3cc(Cl)c(Cl)cc23)CC1 [Example 68, 6,7-dichloro-N-cyclopentyl-4-[1-(cyclopropylsulfonyl)-1,2,3,6-tetrahydropyridin-4-yl]phthalazin-1-amine] |  | 6.34 |  |
| O=S(=O)(c1ccccc1)N1CC=C(c2nnc(NC3CCCC3)c3cc(Cl)c(Cl)cc23)CC1 [Example 69, 6,7-dichloro-N-cyclopentyl-4-[1-(phenylsulfonyl)-1,2,3,6-tetrahydropyridin-4-yl]phthalazin-1-amine] |  | 5.63 |  |
| CS(=O)(=O)CC(=O)N1CC=C(c2nnc(NC3CCCC3)c3cc(Cl)c(Cl)cc23)CC1 [Example 82, 1-{4-[6,7-dichloro-4-(cyclopentylamino)phthalazin-1-yl]-3,6-dihydropyridin-1(2H)-yl}-2-(methylsulfonyl)ethanone] |  | 6.17 |  |
| O=C(C1CCC(O)C1)N1CC=C(c2nnc(NC3CCCC3)c3cc(Cl)c(Cl)cc23)CC1 (centres unmarked) [Example 84, {4-[6,7-dichloro-4-(cyclopentylamino)phthalazin-1-yl]-3,6-dihydropyridin-1(2H)-yl}(3-hydroxycyclopentyl)methanone] |  | 6.16 |  |
